The target in one experiment is T1, Protein skinhead-1 (Caenorhabditis elegans, UniProt P34707).
T1 sequence (P34707 whole entry): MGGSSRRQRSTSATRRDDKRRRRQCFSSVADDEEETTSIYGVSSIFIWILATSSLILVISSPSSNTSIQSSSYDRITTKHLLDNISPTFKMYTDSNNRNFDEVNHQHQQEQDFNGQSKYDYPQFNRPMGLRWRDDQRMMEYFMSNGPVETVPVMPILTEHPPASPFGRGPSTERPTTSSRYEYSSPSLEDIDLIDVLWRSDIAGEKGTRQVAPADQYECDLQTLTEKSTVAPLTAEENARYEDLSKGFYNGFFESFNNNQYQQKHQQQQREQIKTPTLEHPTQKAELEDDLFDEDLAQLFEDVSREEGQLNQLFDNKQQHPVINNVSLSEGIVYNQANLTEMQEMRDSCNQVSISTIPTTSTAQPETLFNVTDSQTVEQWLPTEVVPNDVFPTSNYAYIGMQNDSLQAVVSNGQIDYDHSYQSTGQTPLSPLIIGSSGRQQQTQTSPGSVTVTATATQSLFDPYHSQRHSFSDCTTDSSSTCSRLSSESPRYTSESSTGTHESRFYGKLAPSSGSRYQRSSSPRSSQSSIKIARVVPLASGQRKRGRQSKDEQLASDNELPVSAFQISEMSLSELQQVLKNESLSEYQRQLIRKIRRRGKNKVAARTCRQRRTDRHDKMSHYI
It counts as functional.

The nature of experiment [1]: HEp-2 cell cytotoxicity, dose response, cytotoxicity control for RSV inhibitor project, HTS (AID 2410). It counts as functional. The conditions noted are these: human respiratory syncytial virus.
Experiment [2] addresses T2, Short transient receptor potential channel 4 (Mus musculus, UniProt Q9QUQ5).
T2 sequence (Q9QUQ5 whole entry): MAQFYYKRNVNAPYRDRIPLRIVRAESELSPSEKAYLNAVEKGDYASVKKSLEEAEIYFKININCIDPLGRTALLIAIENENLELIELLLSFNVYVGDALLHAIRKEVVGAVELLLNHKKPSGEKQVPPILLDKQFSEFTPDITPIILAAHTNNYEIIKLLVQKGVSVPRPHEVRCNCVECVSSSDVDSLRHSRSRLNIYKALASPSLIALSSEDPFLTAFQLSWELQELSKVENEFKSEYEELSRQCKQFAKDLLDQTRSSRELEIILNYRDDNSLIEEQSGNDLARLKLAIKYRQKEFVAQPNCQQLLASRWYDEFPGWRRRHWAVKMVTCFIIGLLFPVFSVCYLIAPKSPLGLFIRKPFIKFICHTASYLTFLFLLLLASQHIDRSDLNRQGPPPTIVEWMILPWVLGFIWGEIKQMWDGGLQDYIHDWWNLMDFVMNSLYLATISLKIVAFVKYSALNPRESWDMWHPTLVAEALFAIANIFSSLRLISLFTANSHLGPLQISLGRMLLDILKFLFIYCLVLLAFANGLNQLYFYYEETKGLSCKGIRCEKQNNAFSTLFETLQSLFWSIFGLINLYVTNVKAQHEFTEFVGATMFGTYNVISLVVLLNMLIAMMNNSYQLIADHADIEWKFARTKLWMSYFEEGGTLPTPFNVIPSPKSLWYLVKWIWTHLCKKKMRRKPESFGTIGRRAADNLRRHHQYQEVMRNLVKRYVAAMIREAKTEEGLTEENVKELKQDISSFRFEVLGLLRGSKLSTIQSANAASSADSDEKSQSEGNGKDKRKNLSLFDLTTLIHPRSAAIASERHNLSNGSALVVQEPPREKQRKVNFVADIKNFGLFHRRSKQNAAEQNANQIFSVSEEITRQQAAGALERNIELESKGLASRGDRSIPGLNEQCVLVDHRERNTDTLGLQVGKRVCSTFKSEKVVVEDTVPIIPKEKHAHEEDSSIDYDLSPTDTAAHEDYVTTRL
The experiment can be described thus: mouse TRPC4 channel inhibitors, dose response, cell-based, HEK293 TRPC4/mu-opioid, Fluo-4 calcium (AID 434942).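 Note: potency of inhibitors blocking the TRPC4 calcium response.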 It counts as functional.

Experiment [3] has as its target T2, Short transient receptor potential channel 4. The experiment can be described thus: mouse TRPC4 channel activators, dose response, cell-based, HEK293 TRPC4/mu-opioid, Fluo-4 calcium (AID 434937). It counts as functional.
The target of experiment [4] is T3, Polyadenylate-binding protein 1 (Homo sapiens, UniProt P11940). Nature of the experiment: PABP1 MLLE–PAM2 interaction inhibitors, dose response, miRNA deadenylation inhibitor project, biochemical, fluorescence polarization, Cy5-PAM2 peptide, secondary (AID 602260). The note with it: read-out: IC50_Mean. It counts as functional.
T3 sequence (P11940 whole entry): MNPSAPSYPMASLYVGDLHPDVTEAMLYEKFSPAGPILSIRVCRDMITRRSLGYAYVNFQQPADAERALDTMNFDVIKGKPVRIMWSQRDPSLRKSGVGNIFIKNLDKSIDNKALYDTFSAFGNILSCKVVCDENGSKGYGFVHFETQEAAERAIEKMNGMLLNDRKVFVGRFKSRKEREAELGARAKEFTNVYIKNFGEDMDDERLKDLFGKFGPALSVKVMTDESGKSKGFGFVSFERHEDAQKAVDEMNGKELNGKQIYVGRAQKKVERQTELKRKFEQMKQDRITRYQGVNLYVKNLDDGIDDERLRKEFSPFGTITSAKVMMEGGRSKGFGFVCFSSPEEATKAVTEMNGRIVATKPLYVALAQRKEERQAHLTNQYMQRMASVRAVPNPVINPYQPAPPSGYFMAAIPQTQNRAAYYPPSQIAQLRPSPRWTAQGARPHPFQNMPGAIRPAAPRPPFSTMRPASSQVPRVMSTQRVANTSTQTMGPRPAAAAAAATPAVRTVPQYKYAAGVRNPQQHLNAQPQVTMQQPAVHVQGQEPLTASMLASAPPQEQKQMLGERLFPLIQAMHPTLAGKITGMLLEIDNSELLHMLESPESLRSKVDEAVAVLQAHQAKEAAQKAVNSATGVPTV
In experiment [5] the target is T3, Polyadenylate-binding protein 1. The experiment can be described thus: PABP1 MLLE–PAM2 binding inhibitor potency, dose response, biochemical, fluorescence polarization, FITC-PAM2 peptide (AID 602259). The note with it: read-out: IC50_Mean. It counts as functional.
A short description of a further experiment: cells. The format is functional.
Experiment [6] concerns the target T4, Zinc finger protein mex-5 (Caenorhabditis elegans, UniProt Q9XUB2).
T4 sequence (Q9XUB2 whole entry): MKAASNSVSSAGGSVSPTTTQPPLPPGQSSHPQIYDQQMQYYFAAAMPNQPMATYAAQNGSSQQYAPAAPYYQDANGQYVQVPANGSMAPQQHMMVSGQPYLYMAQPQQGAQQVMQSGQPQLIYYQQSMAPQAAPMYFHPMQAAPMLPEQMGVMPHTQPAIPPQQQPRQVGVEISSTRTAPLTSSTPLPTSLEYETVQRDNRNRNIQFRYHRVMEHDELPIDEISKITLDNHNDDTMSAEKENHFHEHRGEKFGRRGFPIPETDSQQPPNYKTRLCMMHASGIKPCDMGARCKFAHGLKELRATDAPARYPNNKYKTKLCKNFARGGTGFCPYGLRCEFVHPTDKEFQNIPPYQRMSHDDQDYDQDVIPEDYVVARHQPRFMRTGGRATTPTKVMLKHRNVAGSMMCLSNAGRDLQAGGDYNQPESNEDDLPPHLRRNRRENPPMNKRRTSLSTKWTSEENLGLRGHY
The experiment can be described thus: MEX-5/TCR-2 RNA interaction inhibitors, dose response, biochemical, C. elegans, fluorescence polarization (AID 1960).

Experiment [7] concerns the target T5, RNA-binding protein pos-1 (Caenorhabditis elegans, UniProt G5EF15).
T5 sequence (G5EF15 whole entry): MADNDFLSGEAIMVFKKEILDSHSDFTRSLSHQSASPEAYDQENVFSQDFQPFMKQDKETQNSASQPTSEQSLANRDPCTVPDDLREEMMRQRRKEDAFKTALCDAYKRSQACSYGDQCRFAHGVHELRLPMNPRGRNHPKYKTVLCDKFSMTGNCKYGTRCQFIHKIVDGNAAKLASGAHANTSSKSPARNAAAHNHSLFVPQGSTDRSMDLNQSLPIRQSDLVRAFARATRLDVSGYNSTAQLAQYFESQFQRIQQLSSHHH
The experiment can be described thus: inhibitors of POS-1/mex-3 RNA binding, dose response, biochemical, fluorescence polarization (AID 1964).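 Note: purified POS-1 fused to maltose binding protein made in E. coli; potency of compounds blocking POS-1 binding to fluorescent RNA.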

In another experiment the test system is Streptococcus. Nature of the experiment: Group A Streptococcus viability loss, dose response, counter-screen for streptokinase expression inhibitor project, luminescence, BacTiterGlo (AID 1915).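 Note: potency for reduction of bacterial viability or growth.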 The format is functional, organism-based.
In experiment [8] the test system is Streptococcus sp. 'group A'. The experiment can be described thus: growth inhibition of control SK(-) GAS strain, dose response, counter-screen for streptokinase expression inhibitor project, luminescence, kanamycin, BacTiterGlo, confirmation (AID 1900). It counts as functional, organism-based.
Another experiment addresses T6, Streptokinase A (Streptococcus pyogenes serotype M1, UniProt P10520).
T6 sequence (P10520 whole entry): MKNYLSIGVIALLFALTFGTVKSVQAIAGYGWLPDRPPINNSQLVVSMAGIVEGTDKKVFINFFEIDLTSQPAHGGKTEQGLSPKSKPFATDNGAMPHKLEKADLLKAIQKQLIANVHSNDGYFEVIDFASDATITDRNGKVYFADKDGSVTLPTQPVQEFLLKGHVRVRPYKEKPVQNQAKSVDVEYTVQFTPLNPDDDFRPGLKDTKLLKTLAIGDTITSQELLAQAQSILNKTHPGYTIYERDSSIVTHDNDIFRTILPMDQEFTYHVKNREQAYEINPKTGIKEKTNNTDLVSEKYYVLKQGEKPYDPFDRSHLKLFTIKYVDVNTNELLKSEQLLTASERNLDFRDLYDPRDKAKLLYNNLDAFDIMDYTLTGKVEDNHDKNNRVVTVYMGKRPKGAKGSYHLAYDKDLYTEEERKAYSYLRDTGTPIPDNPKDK
Nature of the experiment: S. pyogenes streptokinase expression inhibitors, potency, dose response, plasminogen activation absorbance, OD405 (AID 1914).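 Note: secreted streptokinase activity via plasminogen activation per viability signal from cell pellet.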 It counts as functional, Streptococcus pyogenes M1 GAS.

A short description of experiment [9]: inhibitors of intracellular T. cruzi replication, confirmation, NIH3T3 host cells, beta-gal luminescence (AID 2044).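 Note: intracellular parasites grown in NIH/3T3 mouse fibroblasts as host cells; luminescent beta-galactosidase reporter signal from transgenic T. cruzi replicating inside host cells; inhibitors lower the luminescence signal.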 It counts as functional, cell-based.
Experiment [10] can be described thus: cytotoxicity toward NIH3T3 fibroblasts, dose response, counter-screen, cell-based, ATP luminescence, mouse fibroblasts (AID 2010).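 Note: cells exposed to compound for about 90 hours before reading.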 It counts as functional.
Experiment [11] deals with FAD-linked sulfhydryl oxidase ALR (Homo sapiens, UniProt P55789). Nature of the experiment: inhibitors of human ALR sulfhydryl oxidase, dose response, biochemical, H2O2 detection, luminescence, cherry-pick (AID 493248).
Sequence of FAD-linked sulfhydryl oxidase ALR (P55789 whole entry): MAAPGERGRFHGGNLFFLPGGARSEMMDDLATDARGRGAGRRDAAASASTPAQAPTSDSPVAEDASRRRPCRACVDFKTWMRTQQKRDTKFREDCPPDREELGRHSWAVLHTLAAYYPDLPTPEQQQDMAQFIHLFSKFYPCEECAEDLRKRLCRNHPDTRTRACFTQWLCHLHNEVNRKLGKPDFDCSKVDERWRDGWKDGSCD

The structures appear in SMILES notation. Activity calls are given as the source filed them.

28 molecules from ChEMBL document CHEMBL1201862, “PubChem BioAssay data set” (2004) can be followed below.

Take `CCOc1ccccc1C(=O)Nc1ccc(-n2nncc2C(C)(C)C)cc1`: the IC50 on Protein skinhead-1 is > 100 µM (inactive). `CN(C)/C=C1\C(=O)N(c2ccc([N+](=O)[O-])cc2)N=C1c1ccccc1`: in experiment [1], the half-maximal cytotoxic concentration (CC50) is 31.8 µM (active). Further, the EC50 was 15 µM (active) in experiment [2] and 10.6 µM (active) in experiment [3]. For `Cc1cc(C)c2c(=O)c(C#N)coc2c1`, the IC50 in experiment [4] and in [5] was > 66 µM (inactive) each time. On to `O=C(NC(=S)Nc1ccc(CN2CCCCC2)cc1)c1cc2ccccc2o1`, for which the IC50 at Protein skinhead-1 is 32.2 µM (active). For the molecule `CC(=O)NC(=S)Nc1cccc2c(C)cc(C)nc12`, the CC50 in experiment [1] is > 50 µM (active).

Take `Cc1onc(-c2ccccc2)c1C(=O)Nc1nc2c(s1)C(=O)CC(C)(C)C2`: the IC50 on Protein skinhead-1 is > 100 µM (inactive). As to `Cc1ccn2nc(S(=O)(=O)Nc3c(F)cccc3F)nc2n1`, the IC50 in the experiment “cells” was 11.2 µM (active). Take `Oc1cccc(C(=S)N2CCCCC2)c1`: the IC50 in experiment [4] and in experiment [5] was > 66 µM (inactive) in each case.

With `Nc1cccc2c1C(=O)N(Cc1nnc(-c3ccccc3Br)o1)C2=O`, the IC50 in experiment [4] is > 66 µM (inactive); in experiment [5] it was 48.1 µM (inactive). The concentration for a half-maximal effect (EC50) was 29.4 µM (active) in experiment [6] and 40 µM (active) in [7]. As to `CCN(CC)CCC(c1cc(OC)c(OC)c(OC)c1)c1c(OC)cc(OC)c2c(C)cc(=O)oc12` (configuration not stated), at Protein skinhead-1, the IC50 is > 100 µM (inactive). Turning to `Cc1ccc(-c2noc(CCCC(=O)Nc3cccnc3)n2)cc1`, the IC50 in “cells” was 37.4 µM (active).

For the molecule `Cc1cc(C)c(C(=O)COC(=O)c2ccc([N+](=O)[O-])o2)cc1C`, the IC50 in “cells” is 1 µM (active). As for `CCOC(=O)C1(CCc2ccccc2)CCN(Cc2ccc(O)cc2)CC1`, the figures for the 50% effective concentration (EC50) in [2] and in experiment [3] were 2.99 µM (active) and 5.31 µM (active), respectively. Take `CC(C)C1OC2c3cccc4cccc(c34)C2N1c1ccccc1` (configuration not stated): the IC50 in experiment [4] and in experiment [5] was > 66 µM (inactive) throughout. Moreover, the EC50 is > 150 µM (not active) in the experiment with Streptococcus, 3.22 µM (active) in [8] and 2.61 µM (active) on Streptokinase A. Consider `CCO/C(O)=C/c1nc2ccccc2oc1=O`, for which, in the experiment “cells”, the IC50 was 2.88 µM (active).

With `Cc1[nH]c2ccccc2c1C(=O)C(C)OC(=O)c1ccc([N+](=O)[O-])o1` (configuration not stated), in “cells”, the IC50 was < 0.1 µM (active). Regarding `CCN(CC)C(=O)Oc1ccc2cc(Br)ccc2c1`, in [1], the CC50 was 37 µM (active). Turning to `CC1N(C)c2cc(NC(=O)c3cccs3)c(P(=O)(Nc3ccc([N+](=O)[O-])cc3)N3CCOCC3)cc2C1(C)C` (configuration not stated), in [1], the CC50 is 32.1 µM (active). Also, the figures for the EC50 in experiment [9] and in experiment [10] were 1.98 µM (active) and > 30 µM (not active), respectively. Consider `COc1ccc(CCNC(=O)c2cc(-c3ccc(C)c(C)c3O)[nH]n2)cc1OC`, for which the 50% cytotoxic concentration (CC50) in experiment [1] was > 50 µM (active). On to `Cc1ccc(Sc2cc(C(=O)NCCN(C)C)c3ccccc3n2)cc1`, for which, in experiment [3], the concentration giving a half-maximal response (EC50) is 2.66 µM (active). As to `COC(=O)COc1ccc(S(=O)(=O)N2CCCCCC2)cc1`, the IC50 in the experiment “cells” is 33.5 µM (active). As to `O=C1NN(CCO)C(=S)Nc2ccccc21`, the IC50 in [4] and in experiment [5] was > 66 µM (inactive) each time. `NC(=O)c1cccc2c1-c1ccccc1/C2=N/NC(N)=S`: the IC50 in experiment [4] and in [5] was > 66 µM (inactive) throughout. Consider `COc1ccccc1N1CCN(/N=C/c2c(C)nn(-c3ccccc3)c2C)CC1`, for which the IC50 in experiment [4] and in experiment [5] was > 66 µM (inactive) each time. As for `COC1=CC(=NCl)C=CC1=NCl`, the IC50 was > 66 µM (inactive) in experiment [4] and 49.9 µM (inactive) in [5]. Turning to `Cc1ccc([N+](=O)[O-])cc1/N=C(\c1cccc(Br)c1)N1CCOCC1`, in experiment [1], the cytotoxic concentration (CC50) was 40.2 µM (active). For the molecule `CC(=O)/N=C1\SC2CS(=O)(=O)CC2N1c1cccc(Cl)c1Cl` (configuration not stated), the IC50 at Protein skinhead-1 is > 100 µM (inactive).

With `Cc1ccc(-c2csc(N=C(N)N)n2)cc1`, the CC50 in experiment [1] is 46.4 µM (active). For the same molecule, the half-maximal activity concentration (AC50) in experiment [11] was 1.05 µM (active).
